Key:
[1] = excess molar enthalpy (molar enthalpy of mixing); xn = mol fraction of the nth substance listed; conditions: Liquid
[2] = 363.15 K; Liquid

CCCC[n+]1ccn(C)c1.O=S(=O)([N-]S(=O)(=O)C(F)(F)F)C(F)(F)F + CC1CCCCC1
[1], 363.15 K, 101.3 kPa
Conditions | excess molar enthalpy [kcal/mol]
x2 = 0.1067 | 0.111
x2 = 0.2014 | 0.148
x2 = 0.2449 | 0.143
x2 = 0.286 | 0.137
x2 = 0.3621 | 0.123
x2 = 0.4308 | 0.111
x2 = 0.4932 | 0.099
x2 = 0.6022 | 0.0773
x2 = 0.6942 | 0.0587
x2 = 0.773 | 0.0439
x2 = 0.872 | 0.0258

C=CCCCCCC [oct-1-ene]
Conditions | vapor or sublimation pressure [kPa]
[2] | 38.51

CCCC[n+]1ccn(C)c1.O=S(=O)([N-]S(=O)(=O)C(F)(F)F)C(F)(F)F + CCCCCC
[1], 363.15 K, 101.3 kPa
Conditions | excess molar enthalpy [kcal/mol]
x2 = 0.02 | 0.0134
x2 = 0.0501 | 0.0353
x2 = 0.1002 | 0.0689
x2 = 0.1503 | 0.0949
x2 = 0.2003 | 0.109
x2 = 0.3004 | 0.0941
x2 = 0.5004 | 0.0662
x2 = 0.7004 | 0.038
x2 = 0.9002 | 0.0116

CCC(=O)CC [pentan-3-one] + CCCCCC[n+]1ccn(C)c1.O=S(=O)([N-]S(=O)(=O)C(F)(F)F)C(F)(F)F
[1], 353.15 K, 101 kPa
Conditions | excess molar enthalpy [kcal/mol]
x1 = 0.0503 | -0.0247
x1 = 0.1005 | -0.0527
x1 = 0.1507 | -0.0794
x1 = 0.2009 | -0.107
x1 = 0.3011 | -0.156
x1 = 0.4013 | -0.198
x1 = 0.5013 | -0.24
x1 = 0.6013 | -0.266
x1 = 0.7011 | -0.276
x1 = 0.8009 | -0.249
x1 = 0.9005 | -0.177
x1 = 0.9503 | -0.109

CCCC[n+]1ccn(C)c1.O=S(=O)([N-]S(=O)(=O)C(F)(F)F)C(F)(F)F + Cc1ccccc1
[1], 363.15 K, 101 kPa
Conditions | excess molar enthalpy [kcal/mol]
x2 = 0.0653 | -0.023
x2 = 0.1255 | -0.0435
x2 = 0.1811 | -0.0624
x2 = 0.2325 | -0.0772
x2 = 0.2803 | -0.0908
x2 = 0.3249 | -0.101
x2 = 0.4054 | -0.122
x2 = 0.4761 | -0.133
x2 = 0.5389 | -0.139
x2 = 0.6451 | -0.135
x2 = 0.7317 | -0.108
x2 = 0.8035 | -0.0824
x2 = 0.8911 | -0.0447
x2 = 0.9608 | -0.0171

CCCCCC[n+]1ccn(C)c1.O=S(=O)([N-]S(=O)(=O)C(F)(F)F)C(F)(F)F + Cc1ccccc1
[1], 363.15 K, 101 kPa
Conditions | excess molar enthalpy [kcal/mol]
x2 = 0.0501 | -0.0218
x2 = 0.1001 | -0.0441
x2 = 0.1501 | -0.0645
x2 = 0.2002 | -0.0866
x2 = 0.3002 | -0.125
x2 = 0.4503 | -0.169
x2 = 0.6003 | -0.183
x2 = 0.7002 | -0.164
x2 = 0.8002 | -0.116
x2 = 0.8501 | -0.0868
x2 = 0.9001 | -0.0571
x2 = 0.9501 | -0.0288

CCCCCC[n+]1ccn(C)c1.O=S(=O)([N-]S(=O)(=O)C(F)(F)F)C(F)(F)F + CCC(C)=O
[1], 353.15 K, 101 kPa
Conditions | excess molar enthalpy [kcal/mol]
x2 = 0.02 | -0.0125
x2 = 0.05 | -0.0296
x2 = 0.1 | -0.0578
x2 = 0.15 | -0.0902
x2 = 0.2001 | -0.12
x2 = 0.3001 | -0.17
x2 = 0.4001 | -0.215
x2 = 0.5001 | -0.25
x2 = 0.6001 | -0.274
x2 = 0.7001 | -0.278
x2 = 0.8001 | -0.255
x2 = 0.9 | -0.181
x2 = 0.95 | -0.114

CCCCCC[n+]1ccn(C)c1.O=S(=O)([N-]S(=O)(=O)C(F)(F)F)C(F)(F)F + CCO
[1], 353.15 K, 101 kPa
Conditions | excess molar enthalpy [kcal/mol]
x2 = 0.0506 | 0.0647
x2 = 0.1012 | 0.132
x2 = 0.1517 | 0.202
x2 = 0.2022 | 0.269
x2 = 0.4534 | 0.51
x2 = 0.6033 | 0.551
x2 = 0.9012 | 0.257
x2 = 0.9506 | 0.138

CCn1cc[n+](C)c1.O=S(=O)([N-]S(=O)(=O)C(F)(F)F)C(F)(F)F + CCCO
[1], 323.15 K, 101.3 kPa
Conditions | excess molar enthalpy [kcal/mol]
x2 = 0.0418 | 0.0767
x2 = 0.0812 | 0.15
x2 = 0.1536 | 0.27
x2 = 0.277 | 0.451
x2 = 0.4629 | 0.626
x2 = 0.6741 | 0.623
x2 = 0.8082 | 0.488
x2 = 0.9602 | 0.151

CCCCCC[n+]1ccn(C)c1.O=S(=O)([N-]S(=O)(=O)C(F)(F)F)C(F)(F)F + CCCCCC
[1], 363.15 K, 101 kPa
Conditions | excess molar enthalpy [kcal/mol]
x2 = 0.02 | 0.0124
x2 = 0.0501 | 0.035
x2 = 0.1002 | 0.073
x2 = 0.1503 | 0.104
x2 = 0.2003 | 0.123
x2 = 0.3003 | 0.126
x2 = 0.4004 | 0.107
x2 = 0.5004 | 0.0878
x2 = 0.6004 | 0.0711
x2 = 0.7003 | 0.0511
x2 = 0.8002 | 0.0328
x2 = 0.9001 | 0.0157
x2 = 0.9501 | 0.00801

From the NIST ThermoML archive (doi:10.1016/j.fluid.2007.06.001)
